The subject of data set [1] is MCF-7. Put plainly: SRB antiproliferative assay, MCF-7. The data set is classed as cell-based, human. How it is done: Initially, the human breast cancer cell line MCF-7 was used in a prescreen analysis of the anticancer activity of 3-arylisoquinolinones. The cells were treated with serial concentrations of compounds 2–8 for 96 h prior to the assessment of proliferation using the sulforhodamine B (SRB) assay. For each compound, the concentration required to inhibit cell growth by 50% compared to that of the untreated control cells (IC50) was determined (Table 1).
(§1) All cell lines used in the study were human-derived and purchased from ATCC (Manassas, USA). Breast adenocarcinoma MCF-7 and MDA-MB-231 cell lines were cultured in DMEM. Hepatocellular carcinoma HepG2 and SNU423 cell lines were grown in MEME combined with 1% (v/v) nonessential amino acids and RPMI supplemented with 2 mM glutamine, respectively. Lung adenocarcinoma A549 and colorectal carcinoma HCT116 cells were grown in RPMI (+2 mM glutamine). All previous media were further supplemented with 10% heat-inactivated fetal bovine serum. The immortalized, normal liver THLE-3 cells were grown in BEGM (Lonza, Cat# CC-3170) onto precoated vessels according to ATCC’s instructions. Human umbilical vein endothelial cells (HUVECs) were cultured in EGM-2 (Lonza, Cat# CC-3162). All of the cells were maintained at 37 °C and 5% CO2 in a humidified incubator.
(§2) Screening of the antiproliferative activity of 3-arylisoquinolinones was performed using the SRB assay as previously described.[56] Exponentially growing HepG2, SNU423, MDA-MB-231, MCF-7, A549, HCT116, THLE-3, and HUVECs were seeded in 96-well plates at densities of 3000, 2000, 1500, 2500, 1000, 1000, 4000, and 4000 cells/well, respectively. These densities were experimentally selected so that the DMSO-treated cells (control) were approximately 80–90% confluent at the assay’s endpoint, and their optical density (OD) values fell within the assay’s linear range. After overnight incubation, the cells were treated with a range of concentrations of the respective compounds for 96 h, 24 h followed by 72 h compound-free incubation or 24 h (for HUVECs only). After treatment, cell monolayers were fixed with 10% (w/v) trichloroacetic acid for 1 h at 4 °C, washed, and dried. Then, the cells were exposed to 0.4% (w/v) SRB dye (prepared in 1% (v/v) acetic acid; Botium, Cat# 80100) for 15 min followed by several 1% acetic acid washing and then drying. Finally, the cellular protein-bound SRB was thoroughly dissolved in 10 mM Tris base, and the OD values were read at 510 nm using a plate reader (μQuant Microplate Spectrophotometer, Biotek, U.K.) coupled with Gen5 software (BioTek, U.K.). Compound-induced changes in cell growth were inferred from changes in OD values. Cell growth was calculated using the following formula: cell growth (%) = (ODtest/ODcontrol) × 100.

Data set [2] relates to THLE-3. The data set can be described thus: SRB antiproliferative assay, normal liver cell line THLE-3. The conditions noted are these: 24 h +drug/72 h –drug treatment, read-out: mean IC50 ± SEM, THLE-3. In kind it is cell-based, human. From the text: In the preceding experiments, the cells were continuously exposed to the compounds prior to scoring for the antiproliferative/cytotoxic effects. […] The meta compounds were also examined for the presence of differential antiproliferative activity against cancer cells over the normal liver cell line THLE-3. […] Moreover, the sensitivity of the six cancer cell lines toward compounds 2, 4, and 6 was markedly greater than that of THLE-3 cells.
All cell lines used in the study were human-derived and purchased from ATCC (Manassas, USA). Breast adenocarcinoma MCF-7 and MDA-MB-231 cell lines were cultured in DMEM. Hepatocellular carcinoma HepG2 and SNU423 cell lines were grown in MEME combined with 1% (v/v) nonessential amino acids and RPMI supplemented with 2 mM glutamine, respectively. Lung adenocarcinoma A549 and colorectal carcinoma HCT116 cells were grown in RPMI (+2 mM glutamine). […]
Screening of the antiproliferative activity of 3-arylisoquinolinones was performed using the SRB assay as previously described.[56] […] Finally, the cellular protein-bound SRB was thoroughly dissolved in 10 mM Tris base, and the OD values were read at 510 nm using a plate reader (μQuant Microplate Spectrophotometer, Biotek, U.K.) coupled with Gen5 software (BioTek, U.K.). […] Cell growth was calculated using the following formula: cell growth (%) = (ODtest/ODcontrol) × 100.

For data set [3], the system named is A549. The data set can be described thus: SRB antiproliferative assay, A549. The data set is classed as cell-based, human. How it is done:
(§3) In light of this substantial change in activity between the meta and para compounds, a more comprehensive analysis of the antiproliferative activity was performed for the meta-/para-3-arylisoquinolinone pairs 2 and 3, 4, and 5, as well as 6. A panel of breast (MDA-MB-231), liver (HepG2, SNU423), lung (A549), and colon (HCT116) cancer cell lines were treated with the five 3-arylisoquinolinone analogs for 96 h followed by the SRB assay. The dose–response curves (including those for MCF-7) are presented in Figure S22, and their relevant IC50 values are listed in Table 1. […] The differential activity between meta- and para-3-arylisoquinolinones was reproduced in the National Cancer Institute (NCI) one-dose screen using a panel of 59 cancer cell lines (Figure S23).
as §1, §2

Data set [4] relates to MDA-MB-231. The data set can be described thus: SRB antiproliferative assay, MDA-MB-231. In kind it is cell-based, human. How it is done:
as §3, §1, §2

Data set [5] relates to SNU423. The data set can be described thus: SRB antiproliferative assay, SNU423. The data set is classed as cell-based, human. As to the method: as §3, §1
as §2, with “After overnight incubation, the cells were treated with a range of concentrations of the respective compounds for 96 h, 24 h followed by 72 h compound-free incubation or 24 h (for HUVECs only).” left out

Data set [6] concerns HCT116. Put plainly: SRB antiproliferative assay, HCT116. The data set is classed as cell-based, human. As to the method: as §3, §1, §2
In data set [7] the test system is HepG2 cells. Put plainly: Clonogenic assay. The following applies: 0.5 or 1 μM, 14 days. In kind it is cell-based, human. As to the method:
HepG2 cells were treated with varying concentrations of 2–6 added once and kept for 14 days before counting colonies and calculating surviving fraction (Figure 2).
The ability of potential anticancer agents to prevent unlimited cell division and induce reproductive cell death was assessed using clonogenic assay as previously described.[57] In brief, HepG2 cells were seeded into six-well plates at a density of 1000 single cells/well and incubated for 10–12 h to adhere. The cells were then treated with DMSO (control) or a range of concentrations of 2–6 for 14 days. Afterward, the produced colonies were washed with phosphate-buffered saline (PBS), fixed with 70% ethanol for 20 min, and stained with 0.5% (w/v) methylene blue (prepared in 70% methanol). Following washing with water and drying, colonies (≥50 cells) were manually counted. The colony-forming efficiency (CFE) of cells was calculated by dividing the number of colonies formed by the number of cells seeded for each condition. The surviving fraction was determined by dividing the CFE of the treated cells by CFE of the control cells. A survival curve was generated by plotting the log of drug concentrations versus surviving fraction.

Data set [8] has as its system HepG2. Put plainly: SRB antiproliferative assay, HepG2. The data set is classed as cell-based, human. How it is done: as §3, §1, §2

SMILES strings stand for the structures. Read-outs that look alike come from different tables or passages of the source.

`O=c1[nH]c(-c2ccc(F)cc2)cc2ccc(F)cc12` [compound 8] registered a melting point of 294 to 296 °C. The half-inhibitory concentration (IC50) in data set [1] (Homo sapiens, MCF7, 96 h treatment, mean ± SEM, read-out: IC50 MCF-7 (prescreen)) was over 50 µM.
Regarding `COc1cccc(-c2cc3cc(F)ccc3c(=O)[nH]2)c1` [compound 2, 6-Fluoro-3-(3-methoxyphenyl)isoquinolin-1(2H)-one], the IC50 in [2] is over 25 µM; in data set [3] (24 h +drug/72 h –drug treatment, read-out: mean IC50 ± SEM, A549) it was 0.83 ± 0.17 µM; in [3] (96 h treatment, mean ± SEM, read-out: IC50 A549), 0.37 ± 0.01 µM; in data set [4] (24 h +drug/72 h –drug treatment, read-out: mean IC50 ± SEM, MDA-MB-231) it was 0.19 ± 0.04 µM; in [4] (96 h treatment, mean ± SEM, read-out: IC50 MDA-MB-231), 0.17 ± 0.01 µM; in [5] (24 h +drug/72 h –drug treatment, read-out: mean IC50 ± SEM, SNU423), 0.58 ± 0.04 µM. For the same molecule, the IC50 in [5] (96 h treatment, mean ± SEM, read-out: IC50 SNU423) was 0.41 ± 0.03 µM; in data set [1] (24 h +drug/72 h –drug treatment, read-out: mean IC50 ± SEM, MCF-7) it was 1.43 ± 0.3 µM; in [1] (96 h treatment, mean ± SEM, read-out: IC50 MCF-7 (prescreen)) it was 0.75 ± 0.13 µM; in [6] (24 h +drug/72 h –drug treatment, read-out: mean IC50 ± SEM, HCT116), 0.2 ± 0.01 µM; in data set [6] (96 h treatment, mean ± SEM, read-out: IC50 HCT116), 0.22 ± 0.02 µM; in [8] (24 h +drug/72 h –drug treatment, read-out: mean IC50 ± SEM, HepG2) it was 2.33 ± 0.22 µM. The half-inhibitory concentration (IC50) in data set [8] (96 h treatment, mean ± SEM, read-out: IC50 HepG2) is 3.12 ± 0.34 µM. Also, the colony formation result in data set [7] was “No colonies were apparent”.

These data come from article PMC9098178, “SAR of Novel 3-Arylisoquinolinones: meta-Substitution on the Aryl Ring Dramatically Enhances Antiproliferative Activity through Binding to Microtubules” (Journal of Medicinal Chemistry, 2022).
